Data from paper PMC5225203, “Multiparameter toxicity assessment of novel DOPO-derived organophosphorus flame retardants” (Archives of Toxicology, 2016).

How the values were obtained:
[1] = test system: THP-1 monocytes differentiated into macrophages; assay: Acute cytotoxicity, MTS reduction, THP-1 macrophages; format: cell-based, human; details: 48 h; for cell damage (viability, MTS reduction): concentrations as high as 400 µM; for concentration producing acute toxicity: MTS
Procedure: The human monocytic cell line THP-1 (ATCC: TIB-202) was grown as cell suspension in complete cell culture medium under standard growth conditions. Subculturing was performed by replacement of the medium when the cell density reached 8 × 10^5 cells/mL. Cell concentrations were not allowed to exceed 10^6 cells/mL. To differentiate THP-1 monocytes into macrophages, cells were grown in the presence of 200 nM phorbol-12-myristate-13-acetate (PMA; Sigma-Aldrich) for 72 h. For viability assessment, 8 × 10^4 cells per well were seeded in 200 µL complete cell culture medium containing 200 nM PMA in a 96-well plate and differentiated for 72 h under standard growth conditions. Thereafter, the medium was removed, the cells were washed twice with pre-warmed phosphate-buffered saline (PBS), and increasing concentrations of flame retardants or CdSO4 were added in 200 µL complete cell culture medium per well for 48 h. CellTiter96® AQueous One Solution (Promega, Switzerland) containing MTS (3-(4,5-dimethylthiazol-2-yl)-5-(3-carboxymethoxy-phenyl)-2-(4-sulfophenyl)-2H) as a water-soluble tetrazolium compound was used according to the manufacturer’s protocol. Absorption was detected at 490 nm.

[2] = test system: ARE-dependent luciferase expression in KeratinoSens cells; assay: KeratinoSens skin sensitization assay; format: cell-based; details: for skin sensitizer classification / ARE-dependent luciferase expression: KeratinoSens; for ARE-dependent luciferase expression / cell viability (PrestoBlue) in KeratinoSens cells: 48 h
Procedure: Generation of the stable KeratinoSens™ cell line was previously described in detail (Emter et al. [2010]). KeratinoSens™ cells were maintained in DMEM containing glutamax (Gibco/Invitrogen), 9 % FCS, and 0.5 mg/mL G418. For the experiments, KeratinoSens™ cells were seeded onto 96-well plates at a density of 10,000 cells per well in 125 µL medium without G418. After 24 h, the medium was replaced with 200 µL DMEM containing 1 % FCS and the test compounds. After a 2-day incubation period at 37 °C in an atmosphere containing 5 % CO2, the cells were washed once with PBS and a resazurin reduction assay (PrestoBlue®) was carried out in order to compare the viability of the differently treated groups. Fluorescence intensity was measured at 550 nmex and 590 nmem. After another washing step with PBS, cell lysis was performed using 20 µL/well passive lysis buffer (Promega) for 20 min at room temperature. Luciferase activity was measured by applying 50 µL luciferase substrate automatically to each well and detecting the resulting luminescence. Compounds were considered as skin sensitizers when a statistically significant induction of luciferase activity above a defined threshold of ≥1.5 in the absence of impaired cell viability was observed (Emter et al. [2010]; Natsch et al. [2011]).

[3] = test system: rat adrenomedullary pheochromocytoma PC12 cells; details: PC12, 24 h, maximal concentration 100 µM; ref Hendriks et al. [2014]; cited from earlier work
[4] = Penetration into porcine skin by confocal Raman spectroscopy; format: in vitro ADME; details: 1 h; for maximal penetration depth: porcine skin surface, 400 µM; for penetration/accumulation into porcine ear skin: topical 400 µM, confocal Raman
Procedure: The vertical distribution of topically applied DOPO derivatives and reference compounds was investigated on segments of porcine ears from freshly slaughtered animals. The skin was separated from the cartilage, depilated, and placed into Franz diffusion cells (1 cm^2). The acceptor solution was PBS buffer containing 2 % IGEPAL® CA-630 (Sigma-Aldrich). The test compounds were dispersed at a concentration of 400 µM (2 % in the case of caffeine) in PBS buffer containing 2 % IGEPAL® CA-630, after which 300 µL of this mixture (or a blank solution) was topically applied onto the porcine skin and allowed to penetrate for 60 min. Next, the skin was removed from the Franz cells, gently washed with PBS, and placed onto the optical window of an inverse confocal Raman microscope (Model 3510 SCA, River Diagnostics) equipped with a 60 × oil-immersion objective. The 785-nm excitation laser was used to acquire spectra in the fingerprint region (400–1800 cm^−1, 5 s integration time) starting from the surface of the skin and extending to a depth of 60 µm (2 µm step size). The acquisition was repeated for at least five positions. The averaged concentration profiles of the flame retardants and reference compounds were extracted by fitting (unrestricted classical least squares, third-order polynomial baseline) the Raman spectra with the reference spectra of keratin (as representative of all proteins), water, ceramide 3, cholesterol (as representatives of all lipids), natural moisturizing factor (NMF; fixed composition), lactate, urea, and solid test compounds using Skin Tools 2.0 software (River Diagnostics). The concentrations of the test substances are given as the molar fraction relative to keratin rather than correcting for the Raman signal attenuation using mathematical models (Franzen et al. [2013]). The response factors of the test compounds were determined against BSA solutions assuming similar Raman cross sections for keratin and BSA as described in the literature (Caspers et al. [2001]; Fleischli et al. [2013], [2015]). Because EDA-DOPO, ETA-DOPO, and EG-DOPO were only partially soluble in chloroform, their spectra were calibrated against DOPO with the assumption of the same Raman cross section for the biphenyl group. Because of the nature of the unrestricted fit, negative fitting coefficients can be obtained and the values must be compared to those of the blank sample. The fitting coefficients of the blank, untreated skin were also used to estimate the level of detection. The depth resolution of the confocal microscope was determined to be 8 µm at FWHM, leaving an uncertainty of approximately 4 µm in differentiating between truly permeated compounds and compounds sitting at the surface of the skin.

A549 cells = test system: A549 cells; design: method as in Kim et al. [2014]; details: same concentration range as used in the present study; ref Kim et al. [2014]; cited from earlier work

SMILES	cell damage (viability, MTS reduction) [1]	skin sensitizer classification [2]	ARE-dependent luciferase expression [2]	alterations in cell viability, generation of reactive oxygen species, or intracellular Ca2+ levels [3]	concentration producing acute toxicity [1] [µM]	cell viability (PrestoBlue) in KeratinoSens cells [2]	maximal penetration depth [4]	penetration/accumulation into porcine ear skin [4]	increase in ARE-dependent luciferase expression ([2]; at a concentration of 3 µM, in the absence of significant cell death)	cell damage in A549 cells (A549 cells)
O=[PH]1Oc2ccccc2-c2ccccc21 (centres unmarked) [DOPO, 9,10-dihydro-9-oxa-10-phosphaphenanthrene-10-oxide]	no signs of cell damage	No specific effects	neither induced luciferase activity	no signs of alterations	–	–	–	–	–	–
O=P1(NCCNP2(=O)Oc3ccccc3-c3ccccc32)Oc2ccccc2-c2ccccc21 (centres unmarked) [EDA-DOPO, 6,6′-(ethane-1,2-diylbis(azanediyl))bis(6H-dibenzo[c,e][1,2]oxaphosphinine-6-oxide)]	no signs of cell damage	No specific effects	neither induced luciferase activity	–	–	–	–	–	–	–
O=P1(OCCOP2(=O)Oc3ccccc3-c3ccccc32)Oc2ccccc2-c2ccccc21 (centres unmarked) [EG-DOPO, 6,6′-(ethane-1,2-diylbis(oxy))bis(6H-dibenzo[c,e][1,2]oxaphosphinine-6-oxide)]	–	No specific effects	increase in ARE-dependent luciferase expression	–	> 20	decline in cell viability	–	–	–	–
O=P1(NCCOP2(=O)Oc3ccccc3-c3ccccc32)Oc2ccccc2-c2ccccc21 (centres unmarked) [ETA-DOPO, 6-(2-((6-oxido-6H-dibenzo[c,e][1,2]oxaphosphinin-6-yl)amino)ethoxy)-6H-dibenzo[c,e][1,2]oxaphosphinine 6-oxide]	–	No specific effects	increase in ARE-dependent luciferase expression	–	> 20	decline in cell viability	less than 8 µm	significant accumulation	–	–
Brc1ccc(Oc2cc(Br)c(Br)cc2Br)c(Br)c1 [PBDE-99, reference compound]	no signs of cell damage	–	–	–	–	absence of significant cell death	less than 8 µm	moderate accumulation	ca. twofold	did not produce cell damage
